# Measurements taken from publication PMC3197600 (PLoS Pathogens, 2011).
# Assays:
# Test in all cases: biochemical
# [1] = target: p57N2 (pandemic A/RI/5+/1957 H2N2 N2 neuraminidase) (Influenza A virus, UniProt Q194T1); parameters: species or system influenza A virus A/RI/5+/1957 H2N2
# [2] = target: N5 (avian H12N5 neuraminidase) (Influenza A virus (A/duck/Alberta/60/1976(H12N5)), UniProt A1ILL9)
# [3] = target: p09N1 (pH1N1 N1 neuraminidase) (Influenza A virus (A/California/04/2009(H1N1)), UniProt C3W5S3); parameters: species or system 2009 pandemic influenza A H1N1 virus
Structure (SMILES),IC50 [1],IC50 [2],IC50 [3]
CO[C@@H]([C@@H]1OC(C(=O)O)=C[C@H](NC(=N)N)[C@H]1NC(C)=O)[C@H](O)CO [laninamivir],3.12 nM,0.9 nM,–
"[H]/N=C(\N)N[C@H]1C=C(C(=O)O)O[C@@H]([C@H](OC)[C@H](O)COC(=O)CCCCCCC)[C@@H]1NC(C)=O [CS-8958, laninamivir octanoate]",129 nM,389 nM,947 nM
CCOC(=O)C1=C[C@@H](OC(CC)CC)[C@H](NC(C)=O)[C@@H](N)C1 [oseltamivir],0.79 nM,0.83 nM,–
